# What was measured:
# [1] = biological target: T1, P-gp (Homo sapiens, UniProt P08183); assay: Bidirectional transport assay of single components (substrate assay), with or without verapamil; format: in vitro ADME; details: dog; for efflux ratio at 2 h: n = 3, read-out: ER (efflux ratio); for Papp A→B at 2 h / Papp B→A at 2 h: n = 3
# Method: (§1) Before experiments, cell monolayers were washed twice with HBSS and equilibrated with HBSS for 30 min at 37 °C. HBSS containing different components was added to either the apical or basolateral chamber (donor chamber), and blank HBSS was added to the opposite chamber (receiver chamber). The total volume is 0.5 mL in the apical chamber and 1.5 mL in the basolateral chamber. Aliquots (100 μL) were taken from the acceptor chamber every 30 min for 2 h, and the same volume of HBSS was replenished. The transport samples were prepared using solid-phase extraction (SPE). Bond Elut C18 cartridge (Agilent, Santa Clara, CA, USA, 100 mg, 1 mL, 100/pk) was preconditioned with 1 mL methanol and 1 mL deionized water. Both 100 μL of bidirectional assay sample solution and 20 μL of IS solution was loaded onto the SPE cartridge, and the eluent that passed through the SPE cartridge was discarded. After washing with 1 mL of deionized water, 1 mL of the eluent solvent was introduced into the SPE cartridge for collection. The target solutions were concentrated by nitrogen blowing and re-dissolved. The amount of seven constituents of AR was determined by LC-MS/MS. The apparent permeability (Papp) of each substrate across MDCK-MDR1 cell monolayers in both the basolateral to apical (B > A) and apical to basolateral (A > B) directions were calculated using the following formula: […]
# [2] = biological target: T1, P-gp; assay: Bidirectional transport assay of AR extract (seven components quantified); format: in vitro ADME; details: dog; for Papp A→B at 2 h / Papp B→A at 2 h: component given as AR extract (10 mg/mL in HBSS)
# Method: as §1, with “The HBSS containing 10 mg/mL AR extract was prepared. Before” for “Before”, “AR extract” for “different components”
# [3] = biological target: T1, P-gp; assay: Bidirectional transport assay of Rh-123 (P-gp inhibition); format: cell-based; details: for Papp (AP-BL) of rhodamine-123 in combination with the compound / Papp (BL-AP) of rhodamine-123 in combination with the compound: dog, MDCK-MDR1, 120 min
# Method: The HBSS containing 10 μM Rh-123 and different AR components as described in the above Section 4.6.1 were prepared. Additionally, The HBSS containing 10 μM Rh-123 and 0.625 μM valspodar were prepared as the positive control. Before experiments, cell monolayers were washed twice with HBSS and equilibrated with HBSS for 30 min at 37 °C. HBSS containing AR component and Rh-123 was added to either the apical or basolateral chamber (donor chamber), and HBSS containing AR component was added to the opposite chamber (receiver chamber). The total volume is 0.5 mL in the apical chamber and 1.5 mL in the basolateral chamber. Aliquots (100 μL) were taken from the acceptor chamber at 15 min, 30 min, 60 min, 90 min, and 120 min, and the same volume of blank HBSS was replenished. The positive control group was treated as above. The apparent permeability (Papp) of each substrate across MDCK-MDR1 cell monolayers in both the basolateral to apical (B > A) and apical to basolateral (A > B) directions were calculated using the following formula: […]
# [4] = test system: MDCK-MDR1 monolayer cell model; assay: Permeability assay validating the MDCK-MDR1 monolayer cell model; format: in vitro ADME; details: in 120 min
# Excerpt: In this study, an MDCK-MDR1 monolayer cell model was established.
# [5] = MDCK-MDR1, Single Component Group, Papp(BL-AP)/Papp(AP-BL)
# [6] = MDCK-MDR1, with verapamil (concentration not stated), Single Component + Verapamil Group
# [7] = Single Component Group, MDCK-MDR1, 2.0 µM TAIII, 1.6 μM TBII, 4.7 μM MGF, 4.7 μM IMGF, 3.4 μM NMGF, 1.2 μM SSG, 3.9 μM BHI
# [8] = Single Component Group, MDCK-MDR1
# [9] = MDCK-MDR1, AR Extract Group, n = 3, read-out: ER (efflux ratio)
# [10] = MDCK-MDR1, Single Component + Verapamil Group
# T1 sequence (P08183 whole entry): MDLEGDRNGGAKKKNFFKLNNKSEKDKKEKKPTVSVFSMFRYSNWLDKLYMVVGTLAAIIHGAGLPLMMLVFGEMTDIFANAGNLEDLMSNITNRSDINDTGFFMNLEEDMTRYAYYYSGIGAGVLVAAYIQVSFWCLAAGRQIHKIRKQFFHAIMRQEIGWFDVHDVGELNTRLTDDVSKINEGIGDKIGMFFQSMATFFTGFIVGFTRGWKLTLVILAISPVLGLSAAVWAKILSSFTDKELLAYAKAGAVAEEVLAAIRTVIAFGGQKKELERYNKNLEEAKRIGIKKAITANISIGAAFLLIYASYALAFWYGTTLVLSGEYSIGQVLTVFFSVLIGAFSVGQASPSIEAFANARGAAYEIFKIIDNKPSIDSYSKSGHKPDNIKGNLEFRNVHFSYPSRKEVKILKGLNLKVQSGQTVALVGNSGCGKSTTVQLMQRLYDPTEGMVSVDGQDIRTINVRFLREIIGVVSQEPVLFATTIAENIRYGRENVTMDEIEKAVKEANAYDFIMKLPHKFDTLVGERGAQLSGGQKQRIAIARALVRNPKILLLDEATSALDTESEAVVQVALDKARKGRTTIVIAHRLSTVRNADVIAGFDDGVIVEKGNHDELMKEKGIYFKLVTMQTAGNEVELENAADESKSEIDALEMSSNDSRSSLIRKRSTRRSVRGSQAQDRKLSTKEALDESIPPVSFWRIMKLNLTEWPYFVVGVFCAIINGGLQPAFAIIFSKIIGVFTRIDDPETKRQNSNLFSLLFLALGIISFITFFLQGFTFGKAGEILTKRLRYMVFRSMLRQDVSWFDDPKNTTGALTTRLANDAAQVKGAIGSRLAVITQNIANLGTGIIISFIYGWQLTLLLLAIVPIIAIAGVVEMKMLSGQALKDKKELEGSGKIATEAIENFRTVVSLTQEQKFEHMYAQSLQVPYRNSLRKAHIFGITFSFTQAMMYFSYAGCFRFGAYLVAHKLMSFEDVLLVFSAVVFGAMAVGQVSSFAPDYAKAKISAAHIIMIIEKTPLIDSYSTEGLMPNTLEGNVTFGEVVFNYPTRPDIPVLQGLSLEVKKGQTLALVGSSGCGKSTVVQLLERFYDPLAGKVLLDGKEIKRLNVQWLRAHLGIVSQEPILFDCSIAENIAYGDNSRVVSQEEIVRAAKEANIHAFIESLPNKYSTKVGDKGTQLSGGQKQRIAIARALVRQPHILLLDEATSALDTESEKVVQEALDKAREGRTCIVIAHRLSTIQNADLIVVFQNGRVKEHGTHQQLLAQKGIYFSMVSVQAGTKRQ
Compound,"efflux ratio at 2 h [1, 5]","efflux ratio at 2 h [1, 6]","Papp A→B at 2 h [1, 7] [×10⁻⁶ cm/s]","Papp B→A at 2 h [1, 8] [×10⁻⁶ cm/s]","efflux ratio at 2 h [2, 9]","Papp A→B at 2 h ([2]; MDCK-MDR1, n = 3) [×10⁻⁶ cm/s]","Papp B→A at 2 h ([2]; MDCK-MDR1, n = 3) [×10⁻⁶ cm/s]",Papp (AP-BL) of rhodamine-123 in combination with the compound [3] [cm/s],Papp (BL-AP) of rhodamine-123 in combination with the compound [3] [cm/s],Pe value [4],"Papp A→B at 2 h [1, 10] [×10⁻⁶ cm/s]","Papp B→A at 2 h [1, 10] [×10⁻⁶ cm/s]","efflux ratio at 2 h [1, 10]","Papp A→B at 2 h ([1]; MDCK-MDR1, Single Component Group, 2.0 µM TAIII, 1.6 μM TBII, 4.7 μM MGF, 4.7 μM IMGF, 3.4 μM NMGF, 1.2 μM SSG, 3.9 μM BHI) [×10⁻⁶ cm/s]","Papp B→A at 2 h ([1]; MDCK-MDR1, Single Component Group) [×10⁻⁶ cm/s]","efflux ratio at 2 h ([2]; AR Extract Group, MDCK-MDR1, n = 3, read-out: ER (efflux ratio))","ER (efflux ratio) of rhodamine-123 in combination with the compound ([3]; 10 μM Rh-123 with AR component or 0.625 μM valspodar, control ER 2.46, MDCK-MDR1, n = 3)"
O=C([O-])c1ccccc1-c1c2ccc(=O)cc-2oc2cc([O-])ccc12.[Na+].[Na+] [fluorescein sodium],–,–,–,–,–,–,–,–,–,0.78 ± 0.02 × 10^−6 cm/s,–,–,–,–,–,–,–
"C[C@H]1CC[C@@]2(OC1)O[C@H]1C[C@H]3[C@@H]4CC[C@@H]5C[C@@H](O)CC[C@]5(C)[C@H]4CC[C@]3(C)[C@H]1[C@@H]2C [SSG, sarsasapogenin]",< 2,–,–,–,–,0.0398,0.0347,–,–,–,0.0904,0.0374,0.41,0.0374,0.0566,0.87,no statistical difference
"O=c1c2cc(O)c(O)cc2oc2c([C@@H]3O[C@H](CO)[C@@H](O)[C@H](O)[C@H]3O)c(O)cc(O)c12 [IMGF, isomangiferin]",< 2,0.55,0.0651,0.0702,0.91,0.0546,0.0495,–,–,–,–,–,–,–,–,–,–
"COc1ccc(-c2oc3c(CC=C(C)C)c(O)cc(O)c3c(=O)c2O[C@@H]2O[C@@H](C)[C@H](O)[C@@H](O)[C@H]2O)cc1 [BHI, baohuoside I]",2.26,1.08,0.24,0.72,–,0.155,0.298,1.73e-06,2.53e-06,–,–,–,–,–,–,–,–

# The next lines start with results.
"efflux ratio at 2 h [1, 5]","efflux ratio at 2 h [1, 6]","Papp A→B at 2 h [1, 7] [×10⁻⁶ cm/s]","Papp B→A at 2 h [1, 8] [×10⁻⁶ cm/s]","efflux ratio at 2 h [2, 9]","Papp A→B at 2 h ([2]; MDCK-MDR1, n = 3) [×10⁻⁶ cm/s]","Papp B→A at 2 h ([2]; MDCK-MDR1, n = 3) [×10⁻⁶ cm/s]",Papp (AP-BL) of rhodamine-123 in combination with the compound [3] [cm/s],Papp (BL-AP) of rhodamine-123 in combination with the compound [3] [cm/s],Compound,Pe value [4],"Papp A→B at 2 h [1, 10] [×10⁻⁶ cm/s]","Papp B→A at 2 h [1, 10] [×10⁻⁶ cm/s]","efflux ratio at 2 h [1, 10]","Papp A→B at 2 h ([1]; MDCK-MDR1, Single Component Group, 2.0 µM TAIII, 1.6 μM TBII, 4.7 μM MGF, 4.7 μM IMGF, 3.4 μM NMGF, 1.2 μM SSG, 3.9 μM BHI) [×10⁻⁶ cm/s]","Papp B→A at 2 h ([1]; MDCK-MDR1, Single Component Group) [×10⁻⁶ cm/s]","efflux ratio at 2 h ([2]; AR Extract Group, MDCK-MDR1, n = 3, read-out: ER (efflux ratio))","ER (efflux ratio) of rhodamine-123 in combination with the compound ([3]; 10 μM Rh-123 with AR component or 0.625 μM valspodar, control ER 2.46, MDCK-MDR1, n = 3)"
> 2,0.88,0.955,2.16,0.63,3.05,1.94,1.78e-06,2.17e-06,"C[C@H]1CC[C@@]2(OC1)O[C@H]1C[C@H]3[C@@H]4CC[C@@H]5C[C@@H](O[C@@H]6O[C@H](CO)[C@H](O)[C@H](O)[C@H]6O[C@@H]6O[C@H](CO)[C@@H](O)[C@H](O)[C@H]6O)CC[C@]5(C)[C@H]4CC[C@]3(C)[C@H]1[C@@H]2C [TAIII, timosaponin AIII]",–,–,–,–,–,–,–,–
< 2,0.52,0.121,0.137,0.67,0.0976,0.0654,–,–,"O=c1c2cc(O[C@@H]3O[C@H](CO)[C@@H](O)[C@H](O)[C@H]3O)c(O)cc2oc2cc(O)c([C@@H]3O[C@H](CO)[C@@H](O)[C@H](O)[C@H]3O)c(O)c12 [NMGF, neomangiferin]",–,–,–,–,–,–,–,–
> 2,0.53,0.606,1.35,0.48,0.586,0.283,1.88e-06,2.36e-06,"O=c1c2cc(O)c(O)cc2oc2cc(O)c([C@@H]3O[C@H](CO)[C@@H](O)[C@H](O)[C@H]3O)c(O)c12 [MGF, mangiferin]",–,–,–,–,–,–,–,–
> 2,0.65,0.719,1.67,0.83,1.81,1.5,1.85e-06,2.34e-06,"C[C@@H](CC[C@@]1(O)O[C@H]2C[C@H]3[C@@H]4CC[C@@H]5C[C@@H](O[C@@H]6O[C@H](CO)[C@H](O)[C@H](O)[C@H]6O[C@@H]6O[C@H](CO)[C@@H](O)[C@H](O)[C@H]6O)CC[C@]5(C)[C@H]4CC[C@]3(C)[C@H]2[C@@H]1C)CO[C@@H]1O[C@H](CO)[C@@H](O)[C@H](O)[C@H]1O [TBII, timosaponin BII]",–,–,–,–,–,–,–,–

# Source: article PMC9740098, “In Vitro Evaluation of the Interaction of Seven Biologically Active Components in Anemarrhenae rhizoma with P-gp” (Molecules, 2022)
